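Exposure lasted 48 hours, with cells grown in 96-well plates and compounds tested at five concentrations. Here, GI50 denotes the concentration required for 50% inhibition of growth. Definition used: TGI = concentration required for complete inhibition of growth.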
Assays:
Experiment in all cases: DTP human tumour cell line panel, 48 h
[1] = tested on: T-47D breast
[2] = tested on: HOP-62 NSCLC
[3] = tested on: K-562 leukemia
[4] = tested on: HL-60(TB) leukemia
[5] = tested on: NCI-H23 lung
[6] = tested on: OVCAR-3 ovarian
[7] = tested on: SF-295 CNS
[8] = tested on: KM12 colon
[9] = tested on: HCC-2998 colon
[10] = tested on: SF-268 CNS
[11] = tested on: SK-MEL-2 melanoma
[12] = tested on: IGROV1 ovarian
[13] = tested on: TK-10 renal
[14] = tested on: SK-MEL-5 melanoma
[15] = tested on: SW-620 colon
[16] = tested on: ACHN renal
[17] = tested on: RPMI-8226 leukemia
[18] = tested on: OVCAR-8 ovarian
[19] = tested on: UACC-257 melanoma
[20] = tested on: COLO 205 colon
[21] = tested on: NCI/ADR-RES ovarian
[22] = tested on: RXF 393 renal
[23] = tested on: NCI-H460 lung
[24] = tested on: HS 578T breast
[25] = tested on: 786-0 renal
[26] = tested on: CAKI-1 renal
[27] = tested on: SK-MEL-28 melanoma
[28] = tested on: MOLT-4 leukemia
[29] = tested on: MDA-MB-231 breast
[30] = tested on: A498 renal
[31] = tested on: OVCAR-4 ovarian
[32] = tested on: U251 CNS
[33] = tested on: CCRF-CEM leukemia
[34] = tested on: UO-31 renal
[35] = tested on: DU-145 prostate
[36] = tested on: MDA-MB-435
[37] = tested on: HCT-15 colon
[38] = tested on: SNB-19 CNS
[39] = tested on: SK-OV-3 ovarian
[40] = tested on: OVCAR-5 ovarian
[41] = tested on: EKVX NSCLC
[42] = tested on: HT29 colon
[43] = tested on: SF-539 CNS
[44] = tested on: HCT-116 colon
[45] = tested on: HOP-92 NSCLC
[46] = tested on: MALME-3M melanoma
[47] = tested on: LOX IMVI melanoma
[48] = tested on: BT-549 breast
[49] = tested on: NCI-H522 lung
[50] = tested on: NCI-H226 lung
[51] = tested on: SR leukemia
[52] = tested on: MCF7 breast
[53] = tested on: SN12C renal
[54] = tested on: PC-3 prostate
[55] = tested on: SNB-75 CNS
[56] = tested on: UACC-62 melanoma
[57] = tested on: A549 NSCLC

CCN(CC)S(=O)(=O)c1ccc(-c2nc(C(Cl)Cl)nc3cc(-c4ccc(F)cc4)nn23)cc1
GI50 [1]: 2.94 µM | TGI [1]: > 100 µM | GI50 [2]: 3.21 µM | TGI [2]: > 100 µM | GI50 [3]: 1.83 µM | TGI [3]: > 100 µM | GI50 [4]: 1.58 µM | TGI [4]: 6.65 µM | GI50 [5]: 2.49 µM | TGI [5]: 20.6 µM | GI50 [6]: 1.15 µM | TGI [6]: 2.87 µM | GI50 [7]: 2.29 µM | TGI [7]: 12.8 µM | GI50 [8]: 1.89 µM | TGI [8]: 9.43 µM | GI50 [9]: 1.89 µM | TGI [9]: 4.15 µM | GI50 [10]: 5.14 µM | TGI [10]: > 100 µM | GI50 [11]: > 100 µM | TGI [11]: > 100 µM | GI50 [12]: 3.38 µM | TGI [12]: > 100 µM | GI50 [13]: 2.99 µM | TGI [13]: 8.72 µM | GI50 [14]: > 100 µM | TGI [14]: > 100 µM | GI50 [15]: 1.41 µM | TGI [15]: > 100 µM | GI50 [16]: 1.16 µM | TGI [16]: 3.57 µM | GI50 [17]: 0.733 µM | TGI [17]: 3.79 µM | GI50 [18]: 3.94 µM | TGI [18]: > 100 µM | GI50 [19]: 5.51 µM | TGI [19]: > 100 µM | GI50 [20]: 2.02 µM | TGI [20]: 6.16 µM | GI50 [21]: 2.24 µM | TGI [21]: > 100 µM | GI50 [22]: 1.54 µM | TGI [22]: 3.41 µM | GI50 [23]: 0.923 µM | TGI [23]: 3.07 µM | GI50 [24]: 3.56 µM | TGI [24]: 93.2 µM | GI50 [25]: 5.37 µM | TGI [25]: > 100 µM | GI50 [26]: 2.38 µM | TGI [26]: 13.3 µM | GI50 [27]: 2.73 µM | TGI [27]: 10.8 µM | GI50 [28]: 8.19 µM | TGI [28]: > 100 µM | GI50 [29]: 2.01 µM | TGI [29]: 7.27 µM | GI50 [30]: 1.33 µM | TGI [30]: 4.7 µM | GI50 [31]: 3.71 µM | TGI [31]: > 100 µM | GI50 [32]: 2.21 µM | TGI [32]: 14.4 µM | GI50 [33]: > 100 µM | TGI [33]: > 100 µM | GI50 [34]: 2.27 µM | TGI [34]: 8.99 µM | GI50 [35]: 1.34 µM | TGI [35]: 2.98 µM | GI50 [36]: 3.02 µM | TGI [36]: > 100 µM | GI50 [37]: 1.32 µM | TGI [37]: > 100 µM | GI50 [38]: 3.7 µM | TGI [38]: > 100 µM | GI50 [39]: 4.09 µM | TGI [39]: > 100 µM | GI50 [40]: 3.04 µM | TGI [40]: > 100 µM | GI50 [41]: 2.28 µM | TGI [41]: 6.57 µM | GI50 [42]: 1.55 µM | TGI [42]: 4.77 µM | GI50 [43]: 2.24 µM | TGI [43]: 8.88 µM | GI50 [44]: 1.73 µM | TGI [44]: > 100 µM | GI50 [45]: 2 µM | TGI [45]: 5.47 µM | GI50 [46]: > 100 µM | TGI [46]: > 100 µM | GI50 [47]: 6.37 µM | TGI [47]: > 100 µM | GI50 [48]: 18.5 µM | TGI [48]: > 100 µM | GI50 [49]: > 100 µM | TGI [49]: > 100 µM | GI50 [50]: 3.77 µM | TGI [50]: > 100 µM | GI50 [51]: 2.69 µM | TGI [51]: > 100 µM | GI50 [52]: 2.66 µM | TGI [52]: > 100 µM | GI50 [53]: 15.7 µM | TGI [53]: > 100 µM | GI50 [54]: 2.61 µM | TGI [54]: 18.6 µM | GI50 [55]: 11.7 µM | TGI [55]: > 100 µM | GI50 [56]: 4.03 µM | TGI [56]: > 100 µM | GI50 [57]: 2.52 µM | TGI [57]: 10.1 µM
